# Experimental data from patent publication US9687522B2, “Methods of treating a subject afflicted with an autoimmune disease using predictive biomarkers of clinical response to glatiramer acetate therapy in multiple sclerosis” (TEVA PHARMACEUTICAL INDUSTRIES, LTD., priority 2010, dated 2017).
# Tests used:
# IL-4 = assay: Serum IL-4 by ELISA in GA-treated MS patients; assay type: in vivo, human
# Source text: (§1) Approximately 60 cc of blood was obtained by venipuncture from each MS patient pre-treatment and at successive time points during treatment (3 months, 6 months, 9-12 months and 24 months). PBMC were purified using Ficoll-Hypaque gradients as described in the supplier's protocol (ICN Biomedicals Inc. Ohio, USA). Samples from collaborating centers were sent via overnight FedEx™ delivery at room temperature and processed immediately upon arrival.
# (§2) Interleukin-18 and caspase-1 levels were detected by human ELISA kits (Sandwich ELISA, Bender Nedaystems, USA). The sensitivity of the ELISA was 9.2 and 3.3 pg/ml for IL-18 and caspase-1 respectively. TGF-β, TNF-α, IL-4, IFN-γ, IL-17 and IL-10 levels were detected by human ELISA kits from ebioscience (San Diego Calif., 92121 USA). The sensitivity of the ebioscience kits were 60 pg/ml, 4 pg/ml, 2 pg/ml, 4 pg/ml, 4 pg/ml and 2 pg/ml respectively. BDNF was detected by the Human BDNF ELISA kit from Chemicon International (catalog #CYT306). The sensitivity of the BDNF ELISA was 7.8 pg/ml. […] Duplicates should be within 20% of the mean.
# [1] = tested on: relapsing-remitting MS (RR-MS) patients; assay: Prospective 2-year study of GA-treated RR-MS patients: ARR and EDSS; assay type: in vivo, human
# Method: This is a prospective study in which sixty-two relapsing-remitting MS (RR-MS) patients treated with GA were classified clinically as GA-R (N=42) or GA-HR/NR (N=20) after 2 years of treatment. Cytokine levels, brain-derived neurotrophic factor (BDNF) levels, and T-cell proliferation to GA were analyzed at baseline, 3, 6, 9-12 and 24 months and assessed for their predictive value of clinical response after 2 years of treatment.
# Sixty-two patients diagnosed with definite RR-MS (relapsing-remitting MS) according to the McDonald criteria (33) were included in the study. Following recruitment, the patients were treated with GA for at least 2 years. Subjects were closely followed up at the University of Medicine and Dentistry New Jersey (UMDNJ)-Robert Wood Johnson Medical School, University of Maryland Center for MS, the Gimbel MS Center, Teaneck, N.J. and the Carolina Medical Center-MS Center, Charlotte, N.C. Fifty patients were females with a mean age of 41±10.3 years and 12 were males with a mean age of 39.0±11.9 years. Patients had at least one relapse during the year prior to initiation of GA therapy (Table 2). After at least 2 years on GA therapy, patients were classified as GA-R (n=42) or GA-HR/NR (n=20) based on a clinical criteria more stringent than those recently reported in the literature. (34) A responder (R) is a patient with an annual relapse rate (ARR)<0.5 and no evidence of disease progression as measured by EDSS (expanded disability status scale). A hypo/non-responder (HR/NR) is a patient with an ARR>0.5 and/or with progression in the EDSS of at least 1 point sustained for 6 months (Table 3).
# The patients were classified as GA-responders or hypo/non-responders after being treated with GA for at least 24 months, based on their ARR and progression in disability while on treatment (Tables 1 and 3). The mean disease duration was 8.3±6.1 years for the GA-R group and 12.2±8.2 years for GA-HR/NR group. The mean treatment duration was 26.4±6.6 months for the GA-R group and 26.1±5.9 months for the GA-HR/NR group.
# BDNF [2] = assay: Serum BDNF by ELISA in GA-treated MS patients; assay type: in vivo, human; conditions: GA-R and GA-HR/NR, all treatment time points
# Source text: as §1, §2
# BDNF [3] = assay: BDNF by ELISA in supernatant of GA-stimulated PBMC; assay type: cell-based, human
# Method: as §1
# 2×10^5 PBMC/well were seeded in 96 well U-bottom micro titer plate in the absence of antigen (unstimulated condition) (US) or the presence of GA at 40 and 100 μg/ml (Teva Pharmaceutical Industries, Ltd., Israel), tetanus toxoid (TT 5 μg) obtained from UMASS (University of Mass, Worcester, Mass.). The latter was used as a control antigen. Supernatants were collected from cultured cells at days 1, 3 and 5 for various assays. After 5 days, 1 μCi ^3H-thymidine was added. […] Incorporated radioactivity was measured using a liquid Scintillation counter (Wallac MicroBeta Trilux, PerkinElmer, Boston, Mass.).
# Interleukin-18 and caspase-1 levels were detected by human ELISA kits (Sandwich ELISA, Bender Nedaystems, USA). […] TGF-β, TNF-α, IL-4, IFN-γ, IL-17 and IL-10 levels were detected by human ELISA kits from ebioscience (San Diego Calif., 92121 USA). […] BDNF was detected by the Human BDNF ELISA kit from Chemicon International (catalog #CYT306). […]
# IL-10 = assay: Serum IL-10 by ELISA in GA-treated MS patients; assay type: in vivo, human
# Source text: as §1, §2
# [4] = tested on: class II MHC molecules of mouse and human origin; conditions: cited from earlier work
substance,measurement,setting,value
Glatiramer acetate [GA],Serum IL-4 level,"IL-4; HR/NR, 3 mo",13 ± 0.92 pg/mL
same,Serum IL-4 level,"IL-4; HR/NR, 6 mo",13 ± 1.4 pg/mL
same,Serum IL-4 level,"IL-4; HR/NR, 9-12 mo",18 ± 1.4 pg/mL
same,Serum IL-4 level,"IL-4; HR/NR, 24 mo",16 ± 1 pg/mL
same,Serum IL-4 level,"IL-4; HR/NR, Pre-Rx",14 ± 0.70 pg/mL
same,Serum IL-4 level,"IL-4; R, 3 mo",16 ± 0.70 pg/mL
same,Serum IL-4 level,"IL-4; R, 6 mo",17 ± 0.81 pg/mL
same,Serum IL-4 level,"IL-4; R, 9-12 mo",17 ± 1.8 pg/mL
same,Serum IL-4 level,"IL-4; R, 24 mo",16 ± 1.0 pg/mL
same,Serum IL-4 level,"IL-4; R, Pre-Rx",16 ± 0.60 pg/mL
same,"Δ IL-4 6 months, Median (Non-Responders)","IL-4; serum, change from baseline",−1.5
same,"Δ IL-4 6 months, Median (Responders)","IL-4; serum, change from baseline",1
same,Mean ARR,"[1]; GA-HR/NR, 24 mo Rx",0.75 ± 0.50
same,Mean EDSS,"[1]; GA-HR/NR, 24 mo Rx",3.2 ± 1.37
same,Mean ARR,"[1]; GA-HR/NR, Pre-Rx",0.80 ± 0.49
same,Mean EDSS,"[1]; GA-HR/NR, Pre-Rx",1.95 ± 0.95
same,increase in the EDSS,"[1]; GA-HR/NR, during treatment",1.12 point
same,reduction in the ARR,"[1]; GA-HR/NR, during treatment",6.25%
same,Mean ARR,"[1]; GA-R, 24 mo Rx",0.14 ± 0.25
same,Mean EDSS,"[1]; GA-R, 24 mo Rx",1.57 ± 1.0
same,Mean ARR,"[1]; GA-R, Pre-Rx",0.67 ± 0.46
same,Mean EDSS,"[1]; GA-R, Pre-Rx",2.18 ± 1.08
same,decrease in the EDSS,"[1]; GA-R, during treatment",0.61 point
same,reduction in the ARR,"[1]; GA-R, during treatment",79%
same,"Serum BDNF levels, change during GA treatment",BDNF [2],did not show significant changes during treatment from baseline in either group
same,BDNF production with GA used as ex-vivo stimulus,BDNF [3]; GA versus TT as stimulus of PBMC,slightly higher level compared to TT
same,supernatant BDNF levels from GA-stimulated PBMCs,"BDNF [3]; GA-R group, 3 months, p=0.01, not in the GA HR/NR group",significant increase at 3 months during treatment compared to baseline
same,Serum IL-10 level,"IL-10; HR/NR, 3 mo",40 ± 7.0 pg/mL
same,Serum IL-10 level,"IL-10; HR/NR, 6 mo",37 ± 8.3 pg/mL
same,Serum IL-10 level,"IL-10; HR/NR, 9-12 mo",40 ± 7.0 pg/mL
same,Serum IL-10 level,"IL-10; HR/NR, 24 mo",37.6 ± 5 pg/mL
same,Serum IL-10 level,"IL-10; HR/NR, Pre-Rx",38 ± 9 pg/mL
same,Serum IL-10 level,"IL-10; R, 3 mo",47 ± 8.1 pg/mL
same,Serum IL-10 level,"IL-10; R, 6 mo",67 ± 11 pg/mL
same,Serum IL-10 level,"IL-10; R, 9-12 mo",69.8 pg/mL
same,Serum IL-10 level,"IL-10; R, 24 mo",56 ± 18 pg/mL
same,Serum IL-10 level,"IL-10; R, Pre-Rx",32 ± 4.5 pg/mL
same,"Δ IL-10 6 months, Median (Non-Responders)","IL-10; serum, change from baseline",−1.5
same,"Δ IL-10 6 months, Median (Responders)","IL-10; serum, change from baseline",15
same,"Δ IL-10 9 months, Median (Non-Responders)","IL-10; serum, change from baseline",−2
same,"Δ IL-10 9 months, Median (Responders)","IL-10; serum, change from baseline",42
same,"Δ IL-10 24 months, Median (Non-Responders)","IL-10; serum, change from baseline",1
same,"Δ IL-10 24 months, Median (Responders)","IL-10; serum, change from baseline",29
same,binding to class II MHC molecules,[4],binds promiscuously and with high affinity
